Assay [1] deals with bacterial viability of stimulated saliva samples. Nature of the assay: Salivary ATP bacteria viability assay (luciferase). It is filed as cell-based. The settings on record: one-minute treatment; for Log10 of Viability, Mean: average of two experiments. The text has this: In order to screen for preliminary antibacterial efficacy, a NaDCC solution was subjected to an ATP-bacteria viability test. This method determines the number of viable bacterial cells in culture based on the quantification of adenosine triphosphate (ATP) present. ATP is a product of the catabolism of glucose (glycolysis) and aerobic respiration. This essential nucleoside triphosphate powers virtually all cell functions and is used by bacteria during cell division, the synthesis of nucleic acids and proteins, the transport of macromolecules, cell signaling, and bacterial motility. Given its importance, ATP signals the presence of metabolically active cells, and therefore it may be used to quantify cell viability.
In a reaction, luciferin is converted to oxiluciferin by the luciferase enzyme in the presence of ATP and oxygen. A direct relationship exists between the light output of the reaction and the number of metabolically active cells that makes this method ideal for the rapid screening of antimicrobial agents during the development of oral care formulas to establish their potential antibacterial efficacy. A salivary ATP assay was used to evaluate the antibacterial efficacy of NaDCC-containing tablets on bacterial viability of stimulated saliva samples.
In this assay, a mouthwash solution containing 0.075% cetylpyridinium chloride (CPC), a known antibacterial agent, was used as a positive control. An NaDCC tablet containing only NaDCC and weighing 20 mg was disintegrated in two phosphate buffered saline (PBS) solutions to yield both a 500 ppm NaDCC solution and a 1000 ppm NaDCC solution. […] Lower viability translates into higher antibacterial properties. The data below in Table 4 was calculated using the Tukey Method with a 95% Confidence Interval for the mean.

A short description of assay [2]: pH-dependent bleaching of Lissamine green B by NaDCC. On the procedure: Two different solutions, Solution A and Solution B, were prepared. Solution A contained 2% SAPP, 0.1% Lissamine green B dye, and 97.9% water. Solution B contained 2% tetrasodium pyrophosphate (TSPP), 0.1% Lissamine green B dye, and 97.9% water. Next, solutions with various pHs were obtained by mixing the two different solutions A and B, in different volume ratios (i.e., 1:0, 1:5, 1:1, 5:1, and 0:1). 20 mL of the resulting solutions were added to 10 mg NaDCC, and the time required to bleach away all of the Lissamine green B color was recorded.

Regarding `CCCCCCCCCCCCCCCC[n+]1ccccc1` [CPC, cetylpyridinium chloride, reference compound], the “Log10 of Viability, Mean” value in assay [1] (0.075% CPC mouthwash solution (positive control)) was 5.061 ± 0.032.
In the case of `O=c1nc(O)n(Cl)c(=O)n1Cl` [NaDCC, sodium dichloroisocyanurate], the “Log10 of Viability, Mean” value in assay [1] (500 ppm NaDCC in PBS) was determined as 4.139 ± 0.001; in assay [1] (1000 ppm NaDCC in PBS), 3.530 ± 0.048. For the same molecule, the “antibacterial properties compared to the 0.075% CPC solution” value in assay [1] (NaDCC solutions at both 500 ppm and 1000 ppm in PBS) is reported as “statistically significant improvement”. Also, the Time to bleach entry in assay [2] (10 mg NaDCC in 20 mL Mix Solution 1, VA:VB 1:0, pH 4.6) was “Instantaneous”; in assay [2] (10 mg NaDCC in 20 mL Mix Solution 2, VA:VB 1:5, pH 5.8), 0.25 min; in assay [2] (10 mg NaDCC in 20 mL Mix Solution 3, VA:VB 1:1, pH 7.4), 8 min; in assay [2] (10 mg NaDCC in 20 mL Mix Solution 4, VA:VB 5:1, pH 8.8), 35 min; in assay [2] (10 mg NaDCC in 20 mL Mix Solution 5, VA:VB 0:1, pH 10.5), 80 min.

The values above are taken from patent US20200163857A1, “Dual Component Compositions for Teeth Whitening” (Colgate-Palmolive Company, priority 2018, published 2020).
